{
  "source": "ChEMBL document CHEMBL1201862",
  "about": "“PubChem BioAssay data set” (2004)",
  "key": {"[1]": {"molecular_target": "Luciferin 4-monooxygenase (Photinus pyralis, UniProt P08659)", "sequence (P08659 whole entry)": "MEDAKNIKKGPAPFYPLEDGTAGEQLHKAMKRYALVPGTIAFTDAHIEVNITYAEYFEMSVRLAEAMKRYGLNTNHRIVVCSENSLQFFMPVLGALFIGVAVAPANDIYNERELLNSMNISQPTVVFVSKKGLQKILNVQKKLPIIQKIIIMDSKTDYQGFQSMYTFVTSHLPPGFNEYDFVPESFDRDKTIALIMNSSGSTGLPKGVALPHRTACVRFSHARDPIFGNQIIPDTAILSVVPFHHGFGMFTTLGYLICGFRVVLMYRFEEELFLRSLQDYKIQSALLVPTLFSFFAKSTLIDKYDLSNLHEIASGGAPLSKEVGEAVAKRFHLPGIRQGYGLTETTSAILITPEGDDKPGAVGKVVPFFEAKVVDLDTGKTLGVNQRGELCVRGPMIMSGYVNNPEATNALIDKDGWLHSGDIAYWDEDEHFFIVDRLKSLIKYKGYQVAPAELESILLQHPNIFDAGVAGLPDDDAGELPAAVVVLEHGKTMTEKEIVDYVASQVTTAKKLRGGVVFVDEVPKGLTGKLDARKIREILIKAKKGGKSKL", "assay": "inhibition of purified Photinus pyralis luciferase – biochemical, luminescence, dose response (AID 1891)"}, "Protein Tat": {"molecular_target": "Protein Tat (Human immunodeficiency virus type 1 group M subtype B (isolate HXB2)(HIV-1), UniProt P04608)", "sequence (P04608 whole entry)": "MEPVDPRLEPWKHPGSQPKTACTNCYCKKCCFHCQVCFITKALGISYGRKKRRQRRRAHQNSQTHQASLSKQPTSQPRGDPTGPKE", "type": "functional"}, "[2]": {"assay": "Luminescence Cell-Based Dose Confirmation HTS to Identify Inhibitors of Platelet Dense Granule Release. [Related pubchem assays: 1663 (Primary HTS), 1678 (Summary of Project)]", "type": "functional"}, "[3]": {"molecular_target": "T1, Oxysterols receptor LXR-beta (Homo sapiens, UniProt P55055)", "T1 sequence (P55055 whole entry)": "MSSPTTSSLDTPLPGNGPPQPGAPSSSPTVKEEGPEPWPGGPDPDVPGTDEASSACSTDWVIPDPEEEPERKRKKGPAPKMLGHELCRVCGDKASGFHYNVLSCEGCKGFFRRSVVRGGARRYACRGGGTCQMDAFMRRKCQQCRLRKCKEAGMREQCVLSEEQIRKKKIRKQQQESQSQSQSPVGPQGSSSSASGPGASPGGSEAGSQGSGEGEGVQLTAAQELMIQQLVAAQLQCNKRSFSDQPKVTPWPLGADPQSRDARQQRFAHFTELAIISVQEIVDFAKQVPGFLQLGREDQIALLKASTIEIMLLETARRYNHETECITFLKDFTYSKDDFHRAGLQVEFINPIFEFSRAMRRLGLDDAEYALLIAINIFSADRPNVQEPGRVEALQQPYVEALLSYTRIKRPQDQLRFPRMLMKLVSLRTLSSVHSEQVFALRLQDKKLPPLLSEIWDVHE", "type": "functional, cell-based"}, "[4]": {"assay": "bead-based luminescence quenchers, dual-tagged ARNT – biochemical, AlphaScreen, cherry-pick, artefact control for ARNT-TACC3 interaction inhibitor project, dose response (AID 651705);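 note: AlphaScreen bead proximity signal that flags compounds interfering with the detection technology; potency reflects signal decrease which marks the compound as an assay artifact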", "type": "functional"}, "Interleukin-8": {"molecular_target": "Interleukin-8 (Homo sapiens, UniProt P10145)", "sequence (P10145 whole entry)": "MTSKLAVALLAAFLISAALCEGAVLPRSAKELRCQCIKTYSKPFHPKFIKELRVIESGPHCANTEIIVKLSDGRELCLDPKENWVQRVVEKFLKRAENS", "assay": "Dose Response confirmation of uHTS small molecule hits for cystic fibrosis induced NFkb Inhibitors in a PAF-induced IL8 counterscreen.", "type": "functional", "conditions": "read-out: IC50_Mean"}, "[5]": {"assay": "OVCAR-3 cell viability loss – plate reader, dry powder samples, PAX8 inhibitor project, dose response (AID 743044)", "type": "functional, cell-based"}, "Paired box protein Pax-8": {"molecular_target": "Paired box protein Pax-8 (Homo sapiens, UniProt Q06710)", "sequence (Q06710 whole entry)": "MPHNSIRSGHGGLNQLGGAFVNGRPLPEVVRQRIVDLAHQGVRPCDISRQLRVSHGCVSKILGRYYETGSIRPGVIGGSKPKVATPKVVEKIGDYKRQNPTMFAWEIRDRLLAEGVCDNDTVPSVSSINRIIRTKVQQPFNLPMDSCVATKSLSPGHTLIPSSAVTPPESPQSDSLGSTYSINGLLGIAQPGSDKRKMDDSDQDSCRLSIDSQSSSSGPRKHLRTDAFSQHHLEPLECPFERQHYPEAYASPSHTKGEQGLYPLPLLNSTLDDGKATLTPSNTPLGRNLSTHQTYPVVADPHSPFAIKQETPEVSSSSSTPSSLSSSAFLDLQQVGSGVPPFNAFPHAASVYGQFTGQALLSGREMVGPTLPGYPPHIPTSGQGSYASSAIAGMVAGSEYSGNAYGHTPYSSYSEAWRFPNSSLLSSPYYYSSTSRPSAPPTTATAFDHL", "assay": "PAX8 transcriptional activity inhibition in RMG-I – RMG-I cells, luciferase, cherry-pick, dose response (AID 687027);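 note: luciferase reporter driven by Pax8 target thyroperoxidase promoter measured by SteadyGlo luminescence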", "type": "functional, cell-based"}, "[6]": {"assay": "IGROV1 cell killing – plate reader, dry powder samples, PAX8 inhibitor project, dose response (AID 743043)", "type": "functional, cell-based", "conditions": "IGROV-1"}, "[7]": {"assay": "cytotoxicity toward HT-29 cells – cell-based, CellTiter-Glo luminescence, IC50, dose response (AID 1117330)", "type": "functional"}, "[8]": {"assay": "cytotoxicity toward HCT116 cells – cell-based, CellTiter-Glo luminescence, IC50, dose response (AID 1117332)", "type": "functional", "conditions": "HCT-116"}, "[9]": {"assay": "rise of 4N DNA cells, HeLa – IC50, dose response (AID 1117351)", "type": "functional, cell-based"}, "[10]": {"assay": "rise of 2N DNA cells, HeLa – IC50, dose response (AID 1117349)", "type": "functional, cell-based"}, "[11]": {"assay": "Reduced DLD-1 viability, concentration-response, CellTiter-Glo luminescence (AID 1117352)", "type": "functional"}, "[12]": {"assay": "CellTiter-Glo luminescence survival assay, SW480 colon tumor line, concentration-response curve, half-maximal inhibitory concentration (AID 1117338)", "type": "functional"}, "[13]": {"assay": "RKO cell viability reduction, dose response, CellTiter-Glo luminescence (AID 1117322)", "type": "functional"}, "[14]": {"assay": "HCT116 cell viability decrease, GSK3B pretreatment – CellTiter-Glo, IC50, dose response (AID 1117339)", "type": "functional", "conditions": "HCT-116"}, "[15]": {"assay": "cytotoxicity toward Colo320 cells – cell-based, CellTiter-Glo luminescence, IC50, dose response (AID 1117334)", "type": "functional", "conditions": "COLO 320"}, "[16]": {"assay": "potency of ADAM10 substrate cleavage blockers – biochemical, QFRET, dose response (AID 743254);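 note: ADAM10 enzyme with the DM2 quenched FRET peptide as substrate; EDANS fluorescence gain as the protease cuts the substrate; inhibitor potency against ADAM10 proteolytic activity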"}, "[17]": {"molecular_target": "Disintegrin and metalloproteinase domain-containing protein 17 (Homo sapiens, UniProt P78536)", "sequence (P78536 whole entry, the tested form may be a part)": "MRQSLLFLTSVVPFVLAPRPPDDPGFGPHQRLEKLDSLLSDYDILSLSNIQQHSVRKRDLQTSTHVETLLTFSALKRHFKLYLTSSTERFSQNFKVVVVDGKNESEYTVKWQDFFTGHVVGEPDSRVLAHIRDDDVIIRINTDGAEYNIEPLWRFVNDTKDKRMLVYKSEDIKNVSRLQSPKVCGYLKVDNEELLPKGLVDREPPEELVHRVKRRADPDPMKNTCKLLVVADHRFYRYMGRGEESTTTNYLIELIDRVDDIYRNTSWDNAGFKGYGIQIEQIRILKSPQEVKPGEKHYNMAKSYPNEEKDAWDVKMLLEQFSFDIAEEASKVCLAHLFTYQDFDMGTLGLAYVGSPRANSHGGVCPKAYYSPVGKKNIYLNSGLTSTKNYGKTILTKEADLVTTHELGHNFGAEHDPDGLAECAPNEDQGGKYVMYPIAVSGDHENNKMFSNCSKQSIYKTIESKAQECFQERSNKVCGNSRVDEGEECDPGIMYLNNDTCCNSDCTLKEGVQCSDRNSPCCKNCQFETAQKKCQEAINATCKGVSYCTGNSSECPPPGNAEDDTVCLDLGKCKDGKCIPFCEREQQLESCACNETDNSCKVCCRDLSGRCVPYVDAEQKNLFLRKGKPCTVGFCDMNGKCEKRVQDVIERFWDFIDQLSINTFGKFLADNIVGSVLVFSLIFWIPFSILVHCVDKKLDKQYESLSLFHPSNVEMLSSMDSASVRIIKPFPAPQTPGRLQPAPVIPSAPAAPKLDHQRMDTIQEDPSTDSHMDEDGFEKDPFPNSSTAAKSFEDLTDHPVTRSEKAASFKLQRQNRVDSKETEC", "assay": "inhibition of ADAM17 substrate cleavage – biochemical, quenched FRET substrate, counter-screen for ADAM10 exosite inhibitor project, dose response (AID 743253)"}, "[18]": {"molecular_target": "G-protein coupled receptor 183 (Homo sapiens, UniProt P32249)", "sequence (P32249 whole entry)": "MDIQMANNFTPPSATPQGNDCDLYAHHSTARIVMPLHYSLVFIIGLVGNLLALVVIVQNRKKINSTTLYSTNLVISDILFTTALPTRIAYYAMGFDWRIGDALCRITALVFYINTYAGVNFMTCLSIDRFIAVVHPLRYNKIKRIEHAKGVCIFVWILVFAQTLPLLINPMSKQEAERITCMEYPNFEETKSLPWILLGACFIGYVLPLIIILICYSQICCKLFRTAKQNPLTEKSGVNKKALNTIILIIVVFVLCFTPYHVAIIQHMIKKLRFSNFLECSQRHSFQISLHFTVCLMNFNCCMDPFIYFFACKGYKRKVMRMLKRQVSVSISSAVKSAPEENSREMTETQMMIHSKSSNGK", "assay": "SAR confirmation of small molecule antagonists of the EBI2 receptor via a luminescent beta-arrestin assa.", "type": "functional"}, "[19]": {"assay": "Dd2 parasite growth inhibition in erythrocytes – SYBR Green, dry powder samples, set 9, dose response (AID 1159568)", "type": "functional, cell-based"}},
  "note": "Activity calls are given as the source filed them.",
  "data": [
    {"compound": "O=C(NC1CCCC1)C(c1ccco1)N(Cc1ccccc1)C(=O)c1csnn1", "note": "(configuration not stated)", "values": [
      {"measurement": "EC50", "setting": "[1]", "result": "> 112 µM (not active)"},
      {"measurement": "IC50", "setting": "Protein Tat", "result": "> 100 µM (active)"},
      {"measurement": "EC50", "setting": "[2]", "result": "> 112 µM (not active)"}
    ]},
    {"compound": "CSc1ccc(C2NN=C(c3ccccc3)S2)cc1", "note": "(configuration not stated)", "values": [
      {"measurement": "EC50", "setting": "cells", "result": "> 67.6 µM (inactive)"},
      {"measurement": "EC50", "setting": "[3]", "result": "> 67.6 µM (inactive)"}
    ]},
    {"compound": "COc1ccc(Nc2nnc(-c3ccc(C(N)=O)cc3)c3ccccc23)cc1", "values": [
      {"measurement": "AC50", "setting": "[4]", "result": "104 µM (active)"}
    ]},
    {"compound": "COc1cccc2c(SCC(=O)N/N=C/c3ccccc3)cc(C)nc12", "values": [
      {"measurement": "IC50", "setting": "Interleukin-8", "result": "11.3 µM (inactive)"}
    ]},
    {"compound": "Cc1ccc(S(=O)(=O)Nc2ccc3c(c2)C(=O)N([C@H](C)CO)C[C@@H](C)[C@@H](CN(C)Cc2ccc(C(F)(F)F)cc2)OCCCC[C@H](C)O3)cc1", "values": [
      {"measurement": "AC50", "setting": "[5]", "result": "18.1 µM (active)"},
      {"measurement": "AC50", "setting": "Paired box protein Pax-8", "result": "4.18 µM (active)"},
      {"measurement": "AC50", "setting": "[6]", "result": "43.5 µM (active)"}
    ]},
    {"compound": "COc1cc(NCc2ccc3nc(N)nc(N)c3c2C)cc(OC)c1OC", "values": [
      {"measurement": "IC50", "setting": "[7]", "result": "0.0212 µM (active)"},
      {"measurement": "IC50", "setting": "[8]", "result": "0.0231 µM (active)"},
      {"measurement": "IC50", "setting": "[9]", "result": "> 10 µM (inactive)"},
      {"measurement": "IC50", "setting": "[10]", "result": "> 10 µM (inactive)"},
      {"measurement": "IC50", "setting": "[11]", "result": "0.195 µM (active)"},
      {"measurement": "IC50", "setting": "[12]", "result": "0.0591 µM (active)"},
      {"measurement": "IC50", "setting": "[13]", "result": "0.00272 µM (active)"},
      {"measurement": "IC50", "setting": "[14]", "result": "0.00392 µM (active)"},
      {"measurement": "IC50", "setting": "[15]", "result": "0.386 µM (active)"}
    ]},
    {"compound": "O=C(CSc1nnc(-c2cccs2)n1Cc1ccco1)Nc1ccc(Oc2ccccc2)cc1", "values": [
      {"measurement": "IC50", "setting": "[16]", "result": "> 69.5 µM (inactive)"},
      {"measurement": "IC50", "setting": "[17]", "result": "> 69.5 µM (inactive)"}
    ]},
    {"compound": "O=[N+]([O-])c1cccc(/N=C/C=C(\\O)c2cccs2)c1", "values": [
      {"measurement": "EC50", "setting": "cells", "result": "> 67.5 µM (inactive)"},
      {"measurement": "EC50", "setting": "[3]", "result": "> 67.5 µM (inactive)"}
    ]},
    {"compound": "O=C(/C=C/c1ccc(Cl)c(Cl)c1)N1CCN(Cc2ccc(Cl)cc2)CC1", "values": [
      {"measurement": "IC50", "setting": "[18]", "result": "0.0143 µM (active)"}
    ]},
    {"compound": "CCc1csc(N2[C@H](CO)[C@H](c3ccccc3)[C@@H]2CNC)n1", "values": [
      {"measurement": "AC50", "setting": "[19]", "result": "7.33 µM (active)"}
    ]},
    {"compound": "O=C(/C=C/c1cc(Br)ccc1F)N1CCN(S(=O)(=O)c2ccc(Br)cc2)CC1", "values": [
      {"measurement": "IC50", "setting": "[18]", "result": "0.743 µM (active)"}
    ]},
    {"compound": "C[C@H](CO)N1C[C@H](C)[C@H](CN(C)S(=O)(=O)c2ccc(F)cc2)OCCCC[C@H](C)Oc2ccc(N(C)C)cc2C1=O", "values": [
      {"measurement": "AC50", "setting": "[19]", "result": "5.45 µM (active)"}
    ]}
  ]
}
